According to publication PMC10411625, “Rationally designed stapled peptides allosterically inhibit PTBP1–RNA-binding” (Chemical Science, 2023):

Assay: Helicity by circular dichroism spectroscopy
Format: physicochemical
Conditions: 50 µM peptide, 20 mM sodium phosphate pH 8.0, 10 mM NaF, 20 °C, triplicates, JASCO multivariate secondary structure analysis
Description: For the initial design we used the i, i + 4 strategy where two (S)-pentenyl alanines (S5) were introduced in positions with three other amino acids in between. We picked three different amino acid pairs to replace with the S5 amino acids based on their orientation as observed in the NMR structures (P-2, P-3 and P-4, Fig. 2B and C).[25] To prevent the staple from disturbing the interaction between the ligand and the protein we chose positions facing away from the binding site forming the pairs Ala145/Ala149, Gln148/Gln152, and Ala149/Ala153. The three peptides were synthesized on Rink amide resin and the linear peptides were treated with a Grubbs catalyst to connect the S5 residues. To avoid a mixture of E/Z-diastereomers we reduced the alkene in the linker of the staple using a solution phase hydrogenation protocol.[43] The linear equivalent P-1 was synthesized for comparison but had to be extended on the C-terminus with an arginine residue to improve its solubility. The C-terminus is away from the binding surface and this modification was therefore not expected to have an impact on the binding affinity. The peptides were tested in a competitive fluorescence polarization assay using the RRM12 construct and RNA-2 (Fig. 2C and S2 ^†). […] As the staple is expected to stabilize the α-helical conformation we used circular dichroism (CD) spectroscopy to evaluate the helicity of the peptides. […] It is possible that although P-4 was more helical than P-3, the replacement of Gln148 with the hydrophobic linker disturbed the interaction since the side chain amide potentially interacts with the RRM1 surface. […]
performed in FP bufferPTBP1. […]
serially diluted in the same buffer. […]
a final concentration of 10 nM probe. […]
the settings mentioned previously.
Fluorescence polarization assay with SRSF1
Fluorescence polarization was
Fluorescence polarization assay with hnRNPA2/B1
For the competitive assay 10 nM
Microscale thermophoresis […]
afterwards serially diluted into FP buffer.
The data was evaluated at […]
experiments were performed in duplicates.
Circular Dichroism Spectroscopy […]

Q: For CC(=O)N[C@@H](CC(N)=O)C(=O)N[C@@H](CCC(N)=O)C(=O)N[C@@]1(C)CCCCCCCC[C@@](C)(C(=O)N[C@@H](C)C(=O)N[C@@H](CC(C)C)C(=O)N[C@@H](CCC(N)=O)C(=O)N[C@@H](C)C(=O)N[C@H](C(=O)N[C@@H](CC(N)=O)C(N)=O)C(C)C)NC(=O)[C@H](CCC(N)=O)NC(=O)[C@H](C)NC(=O)[C@H](CCCNC(=N)N)NC1=O [Peptide P-2], which “Helicity by CD spectroscopy” value is on record?
A: 92.3%
